In US6951647B2, “T cell binding ligand peptides and method of inducing a cellular immune response” (Cel-Sci Corporation, priority 2001, dated 2005):
Several values for one entry are separate records, joined by “and”; a condition that tells them apart may be missing. Identical values can stand only once.

Columns and labels:
modified HGP-30 = assay: ELISA for antibody after antisera depletion of CD4 or CD8 cells (FIG. 2); assay type: in vivo, Mice; conditions: pretreatment with anti-CD4, day 28, p=0.002 (FIG. 2)
Description: Select immunoglobulin preparations were obtained from Dr. Stephen Hoffmann, Malaria Program, U.S. Navy. […] This allows one to determine some parts of the nature of various cellular (e.g., T-cell) involvement in the early stage of immune system response with the LEAPS peptide-constructs. It is recognized, however, that this is only a temporary event since new cells are continuously being developed from stem cells and the animals become resistant to the reagents.
The animals are pretreated with the antisera as indicated for 5 days before the initial immunization with peptide-construct having SEQ ID NO:37 or SEQ ID NO:39 on […]. No pretreatment is done before the booster immunization on day 14 or DTH on day 26-28. The mice are then inoculated with the test antigen or saline (control) on day 26 in the left and right ears, respectively, and the DTH response is measured on day 28. The difference between the values for the test and saline control ears is calculated for each group of five animals along with the standard error of the mean (sem) and the results are plotted (see FIG. 1). Also shown in FIG. 1 are values for the untreated animals and animals immunized on day 14 only.
This example is similar to Example 2 but using a more sensitive ELISA test for antibody type. […] This was not the case, however, with pretreatment using anti-CD8 or normal rat IgG. […]

E Clade = assay: ELISA cross clade recognition by sera of immunized mice, E Clade; assay type: in vivo; conditions: day 42 test bleeding, individual mouse
D Clade = assay: ELISA cross clade recognition by sera of immunized mice, D Clade; assay type: in vivo; conditions: for ELISA test antigen D Clade: day 42 test bleeding, Group Average
Procedure: (§1) Mice in groups (5-10 animals per group as designated) are immunized with the LEAPS constructs (25 μg/dose) of SEQ ID NO's:37, 38 and 39, in 0.2 mL emulsified 1:1 with adjuvant (Seppic's ISA-51 or Corixa's microfluidized MPL S/E) on days 0 and 14. Mice are evaluated by Delayed Type of Hypersensitivity (DTH) by inoculation on day 26 with 20 μl of a solution of saline or mH (SEQ ID NO:6) (25 μg in saline) in the left or right ear respectively. The DTH response is determined by measurement of the ear thickness 48 hours later and expressed as increase in ear thickness (mm) of experimental ear compared to that of the control ear. Individual animal sera are collected for measurement of antibody on day 28, 42, 63 and 77. Sera from individual animals and group pools are evaluated for specific anti-mH antibody, for total antibody, IgG1, IgG2a and IgG3 antibody isotype and cross clade titer at selected time points as indicated.
(§2) The mouse sera for the ELISA was used at a dilution of 1:200. Again, clearly, the construct provides higher signals indicative of higher levels of the antibodies that recognized other clades besides the parental one (Clade B) of mH.
(§3) A cross clade analysis for pools of day 42 test bleedings from the same groups as used in Table 3, were obtained and the results are shown in Table 4.

C Clade = assay: ELISA cross clade recognition by sera of immunized mice, C Clade; assay type: in vivo; conditions: for ELISA test antigen C Clade: day 42 test bleeding
Procedure: as §1, §2, §3

Peptide G = assay: Specificity analysis for the TCBL carrier, ELISA plates coated with Peptide G; assay type: in vivo, Mice; conditions: individual animal
[1] = system: modified HGP-30 (mH, SEQ ID NO:6); assay: Isotype analysis (ELISA) of anti-mH antibody in sera of immunized mice; assay type: in vivo; set-up: IgG1 / IgG2a / IgG2b / IgG3: unit not given here; conditions: for IgG1 / IgG2a / IgG2b / IgG3: ELISA signal, day 42 test bleeding; for Ig1, serial dilution 1:200 / Ig1, serial dilution 1:800 / Ig1, serial dilution 1:3200 / Ig1, serial dilution 1:12800 / Ig1, serial dilution 1:51200 / Ig1, serial dilution 1:204800 / Ig2a, serial dilution 1:200 / Ig2a, serial dilution 1:800 / Ig2a, serial dilution 1:3200 / Ig2a, serial dilution 1:12800 / Ig2a, serial dilution 1:51200 / Ig2a, serial dilution 1:204800 / Ig2b, serial dilution 1:200 / Ig2b, serial dilution 1:800 / Ig2b, serial dilution 1:3200 / Ig2b, serial dilution 1:12800 / Ig2b, serial dilution 1:51200 / Ig2b, serial dilution 1:204800 / Ig3, serial dilution 1:200 / Ig3, serial dilution 1:800 / Ig3, serial dilution 1:3200 / Ig3, serial dilution 1:12800 / Ig3, serial dilution 1:51200 / Ig3, serial dilution 1:204800: day 28 pool
Procedure: as §1
The results of an isotype analysis of day 42 test bleedings with G′-mH (SEQ ID NO:37), G-mH (SEQ ID NO:38), J-mH (SEQ ID NO:39), F-mH (SEQ ID NO:40) and F-HGP-30 (SEQ ID NO:41), are shown in Table 1.
An isotype analysis for pools of day 28 test bleedings G-mH, G′-mH and m-HGP-30/KLH using either MPL S/E or ISA51 as adjuvant, are shown in Table 3.

B Clade = assay: ELISA cross clade recognition by sera of immunized mice, B Clade; assay type: in vivo; conditions: for ELISA test antigen B Clade: day 42 test bleeding
Procedure: as §1, §2, §3

[2] = day 63 test bleeding, sera 1:200, individual mouse
[3] = group without '(with MPL)' (ISA51)

DGQ EEK AGV VST GLI GGG ATL YSV HQR IDV KDT KEA LEK IEE EQN KS (DGQEEKAGVVSTGLIGGGYLSGANLNL) [SEQ ID NO: 57, Peptide G′ linked by GGG spacer to modified HGP-30 (mH)]
Antibody detection by ELISA after antisera depletion (modified HGP-30): completely eliminated any antibodies from being detected | ELISA test antigen E Clade (E Clade; group (A)): 0.092 and 0.000 (3×) and 0.018 and 0.101 | ELISA test antigen E Clade (E Clade; group (B)): 0.000 (2×) and 0.054 and 0.358 and 0.113 and 0.037 | ELISA test antigen D Clade (D Clade; group (A)): 0.030 | ELISA test antigen D Clade (D Clade; group (B)): 0.755 | ELISA signal on D Clade (D Clade; [2]): 1.527 and 0.438 and 0.408 and 0.125 and 1.471 and 0.772 and 1.328 and 1.370 and 0.000 and 0.374 | ELISA test antigen C Clade (C Clade; group (A), Group Average): 0.712 | ELISA test antigen C Clade (C Clade; group (A), individual mouse): 0.616 and 0.000 and 0.518 and 0.920 and 0.767 and 1.454 | ELISA test antigen C Clade (C Clade; group (B), Group Average): 1.559 | ELISA test antigen C Clade (C Clade; group (B), individual mouse): 2.575 and 0.837 and 1.711 and 2.254 and 0.911 and 1.070 | ELISA signal on C Clade (C Clade; [2]): 1.454 and 0.127 and 0.427 and 0.073 and 1.592 and 0.651 and 1.365 and 1.139 and 0.008 and 1.191 | A 490 1:200 dilution on plates coated with Peptide G (Peptide G; day 42, first set of groups (animals 4637-4648, 4674-4678)): 0.083 A 490 and 0.054 A 490 and 0.097 A 490 and 0.038 A 490 and 0.087 A 490 and 0.121 A 490 | A 490 1:200 dilution on plates coated with Peptide G (Peptide G; day 42, second set of groups (animals 4662-4673, 4679-4683)): 0.091 A 490 and 0.024 A 490 and 0.006 A 490 and 0.015 A 490 and 0.126 A 490 and 0.113 A 490 | IgG1 ([1]; group Average): 2.667 | IgG2a ([1]; group Average): 1.427 | IgG2b ([1]; group Average): 1.695 | IgG3 ([1]; group Average): 1.562 | IgG1 ([1]; individual mouse): 2.577 and 2.623 and 2.588 and 2.601 and 2.757 and 2.886 and 2.768 and 2.574 and 2.628 and 2.671 | IgG2a ([1]; individual mouse): 1.399 and 1.302 and 1.630 and 0.467 and 1.249 and 2.275 and 0.998 and 1.693 (2×) and 1.566 | IgG2b ([1]; individual mouse): 2.050 and 1.588 and 1.735 and 0.534 and 1.261 and 2.717 and 1.656 and 2.009 and 1.613 and 1.785 | IgG3 ([1]; individual mouse): 1.853 and 1.268 and 1.856 and 1.229 and 2.186 and 1.921 and 1.276 and 2.181 and 0.672 and 1.183 | Ig1, serial dilution 1:200 [1, 3]: 3.006 | Ig1, serial dilution 1:800 [1, 3]: 2.441 | Ig1, serial dilution 1:3200 [1, 3]: 1.755 | Ig1, serial dilution 1:12800 [1, 3]: 1.069 | Ig1, serial dilution 1:51200 [1, 3]: 0.367 | Ig1, serial dilution 1:204800 [1, 3]: 0.114 | Ig2a, serial dilution 1:200 [1, 3]: 0.729 | Ig2a, serial dilution 1:800 [1, 3]: 0.218 | Ig2a, serial dilution 1:3200 [1, 3]: 0.068 | Ig2a, serial dilution 1:12800 [1, 3]: 0.025 | Ig2a, serial dilution 1:51200 [1, 3]: 0.015 | Ig2a, serial dilution 1:204800 [1, 3]: 0.008 | Ig2b, serial dilution 1:200 [1, 3]: 1.420 | Ig2b, serial dilution 1:800 [1, 3]: 0.505 | Ig2b, serial dilution 1:3200 [1, 3]: 0.134 | Ig2b, serial dilution 1:12800 [1, 3]: 0.054 | Ig2b, serial dilution 1:51200 [1, 3]: 0.014 | Ig2b, serial dilution 1:204800 [1, 3]: 0.000 | Ig3, serial dilution 1:200 [1, 3]: 1.132 | Ig3, serial dilution 1:800 [1, 3]: 0.358 | Ig3, serial dilution 1:3200 [1, 3]: 0.092 | Ig3, serial dilution 1:12800 [1, 3]: 0.020 | Ig3, serial dilution 1:51200 [1, 3]: 0.004 | Ig3, serial dilution 1:204800 [1, 3]: 0.000 | Ig1, serial dilution 1:200 ([1]; with MPL): 2.642 | Ig1, serial dilution 1:800 ([1]; with MPL): 1.638 | Ig1, serial dilution 1:3200 ([1]; with MPL): 0.652 | Ig1, serial dilution 1:12800 ([1]; with MPL): 0.279 | Ig1, serial dilution 1:51200 ([1]; with MPL): 0.091 | Ig1, serial dilution 1:204800 ([1]; with MPL): 0.014 | Ig2a, serial dilution 1:200 ([1]; with MPL): 1.961 | Ig2a, serial dilution 1:800 ([1]; with MPL): 0.899 | Ig2a, serial dilution 1:3200 ([1]; with MPL): 0.263 | Ig2a, serial dilution 1:12800 ([1]; with MPL): 0.081 | Ig2a, serial dilution 1:51200 ([1]; with MPL): 0.028 | Ig2a, serial dilution 1:204800 ([1]; with MPL): 0.005 | Ig2b, serial dilution 1:200 ([1]; with MPL): 1.872 | Ig2b, serial dilution 1:800 ([1]; with MPL): 0.881 | Ig2b, serial dilution 1:3200 ([1]; with MPL): 0.253 | Ig2b, serial dilution 1:12800 ([1]; with MPL): 0.104 | Ig2b, serial dilution 1:51200 ([1]; with MPL): 0.011 | Ig2b, serial dilution 1:204800 ([1]; with MPL): 0.006 | Ig3, serial dilution 1:200 ([1]; with MPL): 1.965 | Ig3, serial dilution 1:800 ([1]; with MPL): 0.805 | Ig3, serial dilution 1:3200 ([1]; with MPL): 0.215 | Ig3, serial dilution 1:12800 ([1]; with MPL): 0.045 | Ig3, serial dilution 1:51200 ([1]; with MPL): 0.005 | Ig3, serial dilution 1:204800 ([1]; with MPL): 0.000 | Levels of TH1 preferred isotypes relative to TH2 isotype (IgG1) ([1]; day 42 test bleedings, Table 1, in words): significantly higher signals | ELISA test antigen B Clade (B Clade; group (A), Group Average): 0.346 | ELISA test antigen B Clade (B Clade; group (A), individual mouse): 0.271 and 0.000 and 0.036 and 0.507 and 0.187 and 1.074 | ELISA test antigen B Clade (B Clade; group (B), Group Average): 1.410 | ELISA test antigen B Clade (B Clade; group (B), individual mouse): 2.348 and 0.496 and 1.799 and 1.228 and 2.244 and 0.349 | ELISA signal on B Clade (B Clade; [2]): 1.667 and 0.160 and 0.099 and 0.236 and 1.547 and 0.470 and 1.138 and 0.994 and 0.000 and 0.505
